Data on two compounds can be found in paper PMC9318133 (International Journal of Molecular Sciences, 2022).

The structures appear in SMILES notation. Read-outs that look alike come from different tables or passages of the source.

In assay [1] the target is T1, human CB2 receptors (Homo sapiens, UniProt P34972).
T1 construct: host or cells: CHO cells
Further details: method as in PMID 27527584, PMID 25769232. The settings on record: read-out: hCB2 CHO Membranes Ki; [3H]-CP-55,940 competition binding; mean ± SEM; data elaborated from ref [15],[33]; cited from earlier work.

Assay [2] deals with T2, mouse CB2 receptors (Mus musculus, UniProt P47936).
T2 construct: membranes from the mouse brain and spleen were used, respectively; from tissue; host or cells: mouse spleen membranes, CD-1 mice
T2 sequence (P47936 whole entry): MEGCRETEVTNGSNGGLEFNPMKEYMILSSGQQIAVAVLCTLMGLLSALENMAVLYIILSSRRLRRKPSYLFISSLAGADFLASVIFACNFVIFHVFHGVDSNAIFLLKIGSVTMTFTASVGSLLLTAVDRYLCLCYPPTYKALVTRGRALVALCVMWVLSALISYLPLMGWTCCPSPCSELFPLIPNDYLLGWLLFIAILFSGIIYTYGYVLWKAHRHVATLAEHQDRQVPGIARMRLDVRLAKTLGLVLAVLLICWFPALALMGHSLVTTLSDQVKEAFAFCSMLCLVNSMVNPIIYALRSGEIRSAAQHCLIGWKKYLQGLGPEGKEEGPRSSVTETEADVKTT
Also on record: method as in PMID 27527584, PMID 25769232. Conditions: read-out: Mouse Spleen Membranes CB2 Ki; [3H]-CP-55,940 competition binding; mean ± SEM; data elaborated from ref [15],[33]; cited from earlier work.

Another assay addresses T3, human CB1 receptors (Homo sapiens, UniProt P21554).
T3 construct: host or cells: CHO cells
Also on record: method as in PMID 27527584, PMID 25769232. Conditions: read-out: hCB1 CHO Cells IC50; cyclic AMP experiments; mean ± SEM; data elaborated from ref [15],[33]; cited from earlier work.

Assay [3] concerns CD-1 mice. Also on record: method as in PMID 25769232, PMID 25987201. The settings on record: ED50 + SEM, data elaborated from ref [33],[34]; cited from earlier work.
Assay [4] deals with CD-1 mice. Further details: method as in PMID 25769232, PMID 25987201. Conditions: ED50 + SEM, data elaborated from ref [33],[34]; cited from earlier work. This is another data set of the same source.
Assay [5] relates to CD-1 mice. Also on record: method as in PMID 25769232, PMID 25987201. Conditions: ED50 + SEM, data elaborated from ref [33],[34]; cited from earlier work. This is another data set of the same source.
The test system of assay [6] is CD-1 mice. Also on record: method as in PMID 25769232, PMID 25987201. The settings on record: ED50 + SEM, data elaborated from ref [33],[34]; cited from earlier work. The source holds these as a separate data set.
Assay [7] deals with CD-1 mice. Further details: method as in PMID 25769232, PMID 25987201. The settings on record: ED50 + SEM, data elaborated from ref [33],[34]; cited from earlier work. This is another data set of the same source.
In assay [8] the target is T1, human CB2 receptors. In words: [3H]-CP-55,940 competition binding, CHO cell membranes transfected with human CB2 receptors. The protocol:
To obtain membranes, cells were washed with phosphate-buffered saline (PBS) and scraped off with ice-cold hypotonic buffer (5 mM Tris HCl, 2 mM EDTA, pH 7.4). The cell suspension was homogenized with a Polytron and then centrifuged for 30 min at 40,000× g. The membrane pellet was suspended in 50 mM Tris HCl buffer (pH 7.4) containing 2.5 mM ethylenediaminetetraacetic acid (EDTA), 5 mM MgCl2, and 0.5 mg/mL bovine serum albumin (BSA) for CB1 receptors or in 50 mM Tris HCl (pH 7.4), 1 mM EDTA, 5 mM MgCl2, and 0.5% BSA for CB2 receptors.
For human cannabinoid receptors, membranes obtained from CHO cells transfected with human CB1 or CB2 receptors (2 µg protein/100 µL) were used. […] Bound and free radioactivity were separated by filtering the assay mixture through Whatman GF/C glass fiber filters using a Brandel cell harvester (Brandel Instruments, Unterföhring, Germany).
The protein concentration was determined according to a Bio-Rad method with bovine serum albumin as a reference standard. Inhibitory binding constants, Ki, were calculated from the IC50 values according to the Cheng and Prusoff equation:Ki = IC50/(1 + [C*]/KD*) where [C*] is the concentration of the radioligand and KD* its dissociation constant. Functional experiments were analyzed by non-linear regression analysis using the equation for a sigmoid concentration–response curve (GraphPad Prism, San Diego, CA, USA). […]

The target of another assay is T4, mouse CB1 receptors (Mus musculus, UniProt P47746).
T4 construct: membranes from the mouse brain and spleen were used, respectively; from tissue
T4 sequence (P47746 whole entry): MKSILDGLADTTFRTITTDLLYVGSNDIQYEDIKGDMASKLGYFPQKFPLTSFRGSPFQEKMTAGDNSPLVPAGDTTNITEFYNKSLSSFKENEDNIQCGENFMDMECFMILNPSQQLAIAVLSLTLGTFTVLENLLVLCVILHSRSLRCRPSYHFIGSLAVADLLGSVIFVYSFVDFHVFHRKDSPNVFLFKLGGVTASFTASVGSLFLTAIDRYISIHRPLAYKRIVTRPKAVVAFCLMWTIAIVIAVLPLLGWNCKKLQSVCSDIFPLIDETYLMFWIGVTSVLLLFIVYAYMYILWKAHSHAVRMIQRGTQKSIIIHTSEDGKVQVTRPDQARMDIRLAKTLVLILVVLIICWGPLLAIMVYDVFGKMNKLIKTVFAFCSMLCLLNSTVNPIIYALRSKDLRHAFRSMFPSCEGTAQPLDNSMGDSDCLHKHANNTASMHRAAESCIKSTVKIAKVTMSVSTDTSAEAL
Put plainly: [3H]-CP-55,940 competition binding, mouse brain (cortex) membranes. The protocol:
(§1) Following excision from mice, tissues were suspended in 50 mM Tris HCl, pH 7.4, at 4 °C. The mouse brain and spleen tissues were homogenized with a Polytron and subsequently centrifuged for 10 min at 2000× g. The resulting supernatants were filtered and centrifuged for 20 min at 40,000× g, and the pellets were used for competition binding experiments.
(§2) Competition binding experiments were carried out by incubating 0.5 nM [3H]-CP-55,940 (Perkin Elmer Life and Analytical Sciences, Waltham, MA, USA) and different concentrations of the tested compounds for 90 or 60 min at 30 °C for CB1 or CB2 receptors, respectively. […] Non-specific binding was determined in the presence of 1 μM WIN 55,212-2 [92]. Bound and free radioactivity were separated by filtering the assay mixture through Whatman GF/C glass fiber filters using a Brandel cell harvester (Brandel Instruments, Unterföhring, Germany). The filter-bound radioactivity was counted using a Packard Tri Carb 2810 TR scintillation counter (Perkin Elmer Life and Analytical Sciences, Waltham, MA, USA).
(§3) The protein concentration was determined according to a Bio-Rad method with bovine serum albumin as a reference standard. Inhibitory binding constants, Ki, were calculated from the IC50 values according to the Cheng and Prusoff equation:Ki = IC50/(1 + [C*]/KD*) where [C*] is the concentration of the radioligand and KD* its dissociation constant. […]

Assay [9] deals with T2, mouse CB2 receptors. In words: [3H]-CP-55,940 competition binding, mouse spleen membranes. Here is the method:
as §1, §2, §3

Assay [10] has as its target T1, human CB2 receptors. Put plainly: Cyclic AMP assay (forskolin-stimulated) in CHO cells transfected with human CB2 receptors. The format is cell-based.
Method: CHO cells transfected with human CB1 or CB2 receptors were washed with PBS, detached with trypsin, and centrifuged for 10 min at 200× g.
Functional experiments were analyzed by non-linear regression analysis using the equation for a sigmoid concentration–response curve (GraphPad Prism, San Diego, CA, USA). All the data are expressed as the mean ± SEM of three independent experiments.

T1 sequence (P34972 whole entry): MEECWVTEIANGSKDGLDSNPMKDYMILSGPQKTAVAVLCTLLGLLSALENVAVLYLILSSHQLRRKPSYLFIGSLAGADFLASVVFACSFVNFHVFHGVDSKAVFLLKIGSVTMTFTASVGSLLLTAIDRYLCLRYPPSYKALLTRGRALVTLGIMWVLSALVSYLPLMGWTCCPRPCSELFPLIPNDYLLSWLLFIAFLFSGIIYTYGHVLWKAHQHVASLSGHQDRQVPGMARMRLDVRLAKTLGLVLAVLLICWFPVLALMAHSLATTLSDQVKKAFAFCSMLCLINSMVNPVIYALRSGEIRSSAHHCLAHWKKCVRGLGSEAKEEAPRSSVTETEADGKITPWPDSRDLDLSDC
T3 sequence (P21554 whole entry): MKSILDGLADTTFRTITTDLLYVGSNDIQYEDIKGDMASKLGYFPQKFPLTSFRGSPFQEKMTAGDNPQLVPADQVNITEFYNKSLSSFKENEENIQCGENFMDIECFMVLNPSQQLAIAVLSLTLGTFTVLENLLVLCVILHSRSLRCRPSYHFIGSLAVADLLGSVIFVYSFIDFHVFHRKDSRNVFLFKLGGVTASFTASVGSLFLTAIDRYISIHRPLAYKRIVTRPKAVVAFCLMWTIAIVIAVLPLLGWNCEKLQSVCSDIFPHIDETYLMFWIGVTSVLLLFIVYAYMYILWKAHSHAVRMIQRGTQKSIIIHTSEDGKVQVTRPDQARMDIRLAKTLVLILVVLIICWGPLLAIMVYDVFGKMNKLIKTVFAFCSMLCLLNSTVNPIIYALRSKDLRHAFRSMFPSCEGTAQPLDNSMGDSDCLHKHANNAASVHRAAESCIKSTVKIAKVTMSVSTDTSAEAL

For the compound `CCCCCn1cc(C(=O)c2cccc3ccccc23)c2ccccc21` [JWH-018, 1-naphthalenyl(1-pentyl-1H-indol-3-yl)-methanone], the figures for the Ki on human CB2 receptors [1] and at mouse CB2 receptors [2] were 8.63 ± 0.69 nM and 7.13 ± 0.53 nM, respectively. The IC50 (in general, the concentration needed to halve the response being measured) on human CB1 receptors was 13.7 ± 1.04 nM. For the same compound, the “ED50 Visual Object” value with CD-1 mice [3] was 0.32 ± 0.06 mg/kg. In addition, the “ED50 Startle Reflex” value with CD-1 mice [4] is 0.53 ± 0.05 mg/kg. Also, in the assay with CD-1 mice [5], the “ED50 Core Temperature” value was 1.7 ± 0.04 mg/kg. For the same compound, in the assay with CD-1 mice [6], the “ED50 Tail Pinch” value is recorded as 1.8 ± 0.11 mg/kg. Further, in the assay with CD-1 mice [7], the “ED50 Drag Test” value was 2.4 ± 0.12 mg/kg.
Regarding `CCCCCn1cc(Cc2cccc3ccccc23)c2ccccc21` [JWH-175, 3-(1-naphthalenylmethyl)-1-pentyl-1H-indole], the Ki (usually the equilibrium dissociation constant of an inhibitor or competing ligand from its target) on human CB2 receptors [8] is 363 ± 31 nM; at mouse CB1 receptors, 33.6 ± 2.4 nM; on mouse CB2 receptors [9] it was 487 ± 39 nM. Also, on human CB2 receptors [10], the IC50 was determined as 864 ± 61 nM.
